Test results taken from PubChem BioAssay AID256 (DTP/NCI, 2004).
Where “and” joins values, the source holds several entries; their conditions need not be identical. Identical values can stand only once. Toxic doses and inconclusive results are not listed. How the source made its calls: active means survival T/C of 150% or more; inactive means T/C below 125% in these data.

Tested on: CD2F1 mice, L1210 leukemia ip, survival T/C
Test: NCI In Vivo Anticancer Drug Screen. Data for tumor model L1210 Leukemia (intraperitoneal) in CD2F1 (CDF1) mice
Details: higher = longer survival
Outline: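 Ratio T/C, where T is the treated-group value and C the vehicle-dosed control value, from mice implanted with a transplantable tumor.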

[1] = endpoint: mean survival time, dose: 100.0 mg/kg/injection, schedule: Q01DX001 (ip), vehicle: saline with Tween-80
[2] = endpoint: mean survival time, dose: 200.0 mg/kg/injection, schedule: Q01DX001 (ip), vehicle: saline with Tween-80
[3] = endpoint: mean survival time, dose: 400.0 mg/kg/injection, schedule: Q01DX001 (ip), vehicle: saline with Tween-80
[4] = endpoint: mean survival time, dose: 25.0 mg/kg/injection, schedule: Q01DX001 (ip), vehicle: Klucel (hydroxypropylcellulose) (HPC)
[5] = endpoint: mean survival time, dose: 50.0 mg/kg/injection, schedule: Q01DX001 (ip), vehicle: Klucel (hydroxypropylcellulose) (HPC)
[6] = endpoint: mean survival time, dose: 100.0 mg/kg/injection, schedule: Q01DX001 (ip), vehicle: Klucel (hydroxypropylcellulose) (HPC)
[7] = endpoint: mean survival time, dose: 12.5 mg/kg/injection, schedule: Q01DX009 (ip), vehicle: saline with Tween-80
[8] = endpoint: mean survival time, dose: 25.0 mg/kg/injection, schedule: Q01DX009 (ip), vehicle: saline with Tween-80
[9] = endpoint: mean survival time, dose: 50.0 mg/kg/injection, schedule: Q01DX009 (ip), vehicle: saline with Tween-80
[10] = endpoint: mean survival time, dose: 100.0 mg/kg/injection, schedule: Q01DX009 (ip), vehicle: saline with Tween-80

Measured: T/C

c1ccc2c(c1)sc1cc3c(cc12)CCCC3
inactive: endpoint: mean survival time, dose: 7.9 mg/kg/injection, schedule: Q04DX003 (ip), vehicle: other 93 % of control | endpoint: mean survival time, dose: 15.7 mg/kg/injection, schedule: Q04DX003 (ip), vehicle: other 93 % of control | endpoint: mean survival time, dose: 31.3 mg/kg/injection, schedule: Q04DX003 (ip), vehicle: other 93 % of control | endpoint: mean survival time, dose: 62.5 mg/kg/injection, schedule: Q04DX003 (ip), vehicle: other 93 % of control | endpoint: mean survival time, dose: 125.0 mg/kg/injection, schedule: Q04DX003 (ip), vehicle: other 93 % of control

CC(=O)N(C)[Si](C)(C)C
inactive: [1] 96 % of control | endpoint: mean survival time, dose: 100.0 mg/kg/injection, schedule: Q01DX009 (ip), vehicle: saline sonified 98 % of control | endpoint: mean survival time, dose: 100.0 mg/kg/injection, schedule: Q04DX003 (ip), vehicle: saline 98 % of control | [2] 100 % of control | endpoint: mean survival time, dose: 200.0 mg/kg/injection, schedule: Q01DX009 (ip), vehicle: saline sonified 96 % of control | endpoint: mean survival time, dose: 200.0 mg/kg/injection, schedule: Q04DX003 (ip), vehicle: saline 97 % of control | [3] 106 % of control | endpoint: mean survival time, dose: 400.0 mg/kg/injection, schedule: Q01DX009 (ip), vehicle: saline sonified 96 % of control | endpoint: mean survival time, dose: 400.0 mg/kg/injection, schedule: Q04DX003 (ip), vehicle: saline 101 % of control

CC(C)C(C)/C=C\C(C)C1CCC2C3=CCC4CC(=O)CCC4(C)C3CCC21C (centres undefined)
inactive: [4] 103 % of control | [5] 96 % of control | [6] 103 % of control

C=COC(=O)C(Cc1ccccc1)NC(=O)OCc1ccccc1 (centres undefined)
inactive: endpoint: median survival time, dose: 25.0 mg/kg/injection, schedule: Q01DX009 (ip), vehicle: saline with Tween-80 96 % of control | endpoint: median survival time, dose: 50.0 mg/kg/injection, schedule: Q01DX009 (ip), vehicle: saline with Tween-80 96 % of control | endpoint: median survival time, dose: 100.0 mg/kg/injection, schedule: Q01DX009 (ip), vehicle: saline with Tween-80 93 % of control | endpoint: median survival time, dose: 200.0 mg/kg/injection, schedule: Q01DX009 (ip), vehicle: saline with Tween-80 93 % of control | endpoint: median survival time, dose: 400.0 mg/kg/injection, schedule: Q01DX009 (ip), vehicle: saline with Tween-80 101 % of control

CS(C)(O)NC(N)=O
inactive: endpoint: median survival time, dose: 25.0 mg/kg/injection, schedule: Q01DX009 (ip), vehicle: water 93 % of control | endpoint: median survival time, dose: 50.0 mg/kg/injection, schedule: Q01DX009 (ip), vehicle: water 103 % of control | endpoint: median survival time, dose: 100.0 mg/kg/injection, schedule: Q01DX009 (ip), vehicle: water 102 % of control | endpoint: median survival time, dose: 200.0 mg/kg/injection, schedule: Q01DX009 (ip), vehicle: water 91 % of control | endpoint: median survival time, dose: 400.0 mg/kg/injection, schedule: Q01DX009 (ip), vehicle: water 101 % of control

CC1OC(c2cnn(-c3ccccc3)n2)C(O)C1O (centres undefined)
inactive: endpoint: median survival time, dose: 12.5 mg/kg/injection, schedule: Q01DX005 (ip), vehicle: water 103 % of control | endpoint: median survival time, dose: 25.0 mg/kg/injection, schedule: Q01DX005 (ip), vehicle: water 102 % of control | endpoint: median survival time, dose: 50.0 mg/kg/injection, schedule: Q01DX005 (ip), vehicle: water 103 % of control | endpoint: median survival time, dose: 100.0 mg/kg/injection, schedule: Q01DX005 (ip), vehicle: water 100 % of control | endpoint: median survival time, dose: 200.0 mg/kg/injection, schedule: Q01DX005 (ip), vehicle: water 103 % of control

Cc1ccc(NNC(N)=O)cc1
inactive: [4] 104 % of control | [5] 93 % of control | [6] 89 % of control

CCOC(=O)Nc1ccc(S(=O)(=O)O)cc1
inactive: endpoint: mean survival time, dose: 100.0 mg/kg/injection, schedule: Q01DX001 (ip), vehicle: saline 94 % of control | endpoint: mean survival time, dose: 200.0 mg/kg/injection, schedule: Q01DX001 (ip), vehicle: saline 105 % of control | endpoint: mean survival time, dose: 400.0 mg/kg/injection, schedule: Q01DX001 (ip), vehicle: saline 98 % of control

Cc1cc(Br)c2ccccc2c1N(CC(=O)O)S(=O)(=O)c1ccccc1
inactive: [7] 103 % of control | [8] 103 % of control | [9] 94 % of control

C=C1C(=O)OC2/C=C(\CO)CC/C=C(\CO)CC(OC(=O)C(C)C)C12 (centres undefined)
inactive: endpoint: mean survival time, dose: 3.75 mg/kg/injection, schedule: Q01DX009 (ip), vehicle: Klucel (hydroxypropylcellulose) (HPC) 100 % of control | endpoint: mean survival time, dose: 7.5 mg/kg/injection, schedule: Q01DX009 (ip), vehicle: Klucel (hydroxypropylcellulose) (HPC) 88 % of control | endpoint: mean survival time, dose: 15.0 mg/kg/injection, schedule: Q01DX009 (ip), vehicle: Klucel (hydroxypropylcellulose) (HPC) 97 % of control | endpoint: mean survival time, dose: 30.0 mg/kg/injection, schedule: Q01DX009 (ip), vehicle: Klucel (hydroxypropylcellulose) (HPC) 105 % of control

C1CC2CCCN2C1
inactive: endpoint: mean survival time, dose: 12.5 mg/kg/injection, schedule: Q04DX003 (ip), vehicle: acetone 96 % of control | endpoint: mean survival time, dose: 25.0 mg/kg/injection, schedule: Q04DX003 (ip), vehicle: acetone 102 % of control | endpoint: mean survival time, dose: 50.0 mg/kg/injection, schedule: Q04DX003 (ip), vehicle: acetone 97 % of control

O=C(O)c1cccc2[nH][nH]c(=O)c12
inactive: [1] 100 % of control | [10] 101 % of control | [2] 102 % of control | endpoint: mean survival time, dose: 200.0 mg/kg/injection, schedule: Q01DX009 (ip), vehicle: saline with Tween-80 100 % of control | [3] 100 % of control | endpoint: mean survival time, dose: 400.0 mg/kg/injection, schedule: Q01DX009 (ip), vehicle: saline with Tween-80 98 % of control

CCOc1ccc(/C=C/C(=O)c2ccc(C)cc2)cc1OCC
inactive: endpoint: mean survival time, dose: 37.5 mg/kg/injection, schedule: Q01DX009 (ip), vehicle: saline 98 % of control | endpoint: mean survival time, dose: 75.0 mg/kg/injection, schedule: Q01DX009 (ip), vehicle: saline 98 % of control | endpoint: mean survival time, dose: 150.0 mg/kg/injection, schedule: Q01DX009 (ip), vehicle: saline 113 % of control

Cc1[nH]nc2[nH]cnc(=S)c12
inactive: endpoint: mean survival time, dose: 12.5 mg/kg/injection, schedule: Q01DX005 (ip), vehicle: saline with Tween-80 90 % of control | endpoint: mean survival time, dose: 25.0 mg/kg/injection, schedule: Q01DX005 (ip), vehicle: saline with Tween-80 88 % of control | endpoint: mean survival time, dose: 50.0 mg/kg/injection, schedule: Q01DX005 (ip), vehicle: saline with Tween-80 87 % of control | endpoint: mean survival time, dose: 100.0 mg/kg/injection, schedule: Q01DX005 (ip), vehicle: saline with Tween-80 94 % of control | endpoint: mean survival time, dose: 200.0 mg/kg/injection, schedule: Q01DX005 (ip), vehicle: saline with Tween-80 96 % of control

COc1ccc(NC(=O)Nc2ccc(C)c([N+](=O)[O-])c2)c(OC)c1
inactive: [7] 97 % of control | [8] 103 % of control | [9] 88 % of control and 94 % of control

CCCCCCN(CCCCCC)CC(O)c1ccncc1 (centres undefined)
inactive: endpoint: mean survival time, dose: 25.0 mg/kg/injection, schedule: Q04DX003 (ip), vehicle: saline sonified 100 % of control | endpoint: mean survival time, dose: 50.0 mg/kg/injection, schedule: Q04DX003 (ip), vehicle: saline sonified 92 % of control | endpoint: mean survival time, dose: 100.0 mg/kg/injection, schedule: Q04DX003 (ip), vehicle: saline sonified 100 % of control

Cc1cc(F)ccc1NC(=O)Nc1ccc(F)cc1C
inactive: endpoint: mean survival time, dose: 25.0 mg/kg/injection, schedule: Q04DX002 (ip), vehicle: saline with Tween-80 87 % of control | endpoint: mean survival time, dose: 50.0 mg/kg/injection, schedule: Q04DX002 (ip), vehicle: saline with Tween-80 87 % of control

Clc1n[nH]c(Cl)n1
inactive: [8] 97 % of control | [9] 100 % of control | [10] 89 % of control | endpoint: mean survival time, dose: 100.0 mg/kg/injection, schedule: Q04DX003 (ip), vehicle: saline with Tween-80 86 % of control
